Tests used:
Format in all cases: in vivo, rat
eNOS = eNOS induction in the heart after oral administration (Western blotting); conditions: oral 200 mg/kg, 24 hours after administration, FIG. 4(A)
Text: (§1) Monoclonal IgG antibody cross-reactive to HSP70, HSP60 and HSP27 antibodies was purchased from Stressgen Biotechnologies Corporation ([…], Canada). Primary antibodies of nitric oxide synthase (NOS) or in other words inducible NOS (iNOS), endothelial NOS (eNOS) and neuronal NOS (nNOS) were purchased from Transduction Laboratories (Lexington, Ky.). The primary antibody of thioredoxin was kindly provided by Professor Yodoi of Kyoto University.
(§2) An emulsion of 100% by weight of geranylgeranylacetone (GGA) with 5% by weight of gum arabic and 0.008% by weight of tocopherol was given orally to the rats described above. The oral dosages were 50 mg/kg, 100 mg/kg, 200 mg/kg and 400 mg/kg (GGA groups). […] The vehicle was administered orally to the Control Group.
(§3) Next, the hearts were removed from the killed rats and frozen in liquid nitrogen. […]
(§4) The total protein concentration of the myocardium was quantified by the Bradford method (Bradford M M. A rapid and sensitive method for quantitation of microgram quantities of protein utilizing the principle of protein-dye binding. Anal Biochem 1976; 72:248-254). […] The proteins were detected by exposing the ECL cells with Hyperfilm (Amersham Pharmacia, Buckinghamshire, UK). Based on this, the amount of proteins on the immunoblots was quantified using National Institutes of Health (NIH) imaging software. […]

[1] = tested on: heat shock factor 1 (HSF1); test: HSF1 phosphorylation and translocation in cytosolic and nuclear heart fractions (Western immunoblotting); conditions: 24 h after GGA 200 mg/kg oral or vehicle; chelerythrine 5 mg/kg i.v. pretreatment, FIG. 9
Protocol: (§5) Male Sprague-Dawley rats (220-250 g) were used. GGA, as an emulsion with 5% gum arabic and 0.008% tocopherol, was given orally at a dose of 200 mg/kg. Rats were classified into 4 groups. FIG. 7 is a diagrammatic representation of experimental protocol. […] Twenty-four hours after oral administration of GGA or vehicle, rats were anesthetized (sodium pentobarbital, 50 mg/kg IP) and heparinized (500 IU/kg IP). Hearts were excised, immediately frozen in liquid nitrogen, and stored at −70° C. until use for Western blot analysis (n=4 for each group). […]
(§6) To analyze the expression of HSP70, the frozen heart samples were homogenized with SDS sample buffer (pH 6.8, 20% glycerol, 6% SDS, 0.12M Tris), centrifuged and boiled (Maloyan A, Palmon A, Horowitz M. Heat acclimation increases the basal HSP70 level and alters its production dynamics during heat stress. Am J Physiol. 1999; 276:R1506-R1515.). […] The total protein concentration of heart was quantified by the Bradford method (Bradford MM. A rapid and sensitive method for quantitation of microgram quantities of protein utilizing the principle of protein-dye binding. Anal. Biochem. 1976;72:248-254). […] The proteins were detected by ECL with exposure to Hyperfilm (Amersham Pharmacia). The amount of protein on the immunoblots was quantified using National Institutes of Health image software. […]

iNOS = iNOS induction in the heart after oral administration (Western blotting); conditions: oral 200 mg/kg, 24 hours after administration, FIG. 4(A)
Text: as §1, §2, §3, §4

HSP70 = test: Effect of chelerythrine pretreatment on GGA-induced HSP70 expression in the heart (Western immunoblotting), Example 2; conditions: 24 h after GGA 200 mg/kg oral or vehicle; chelerythrine 5 mg/kg i.v. pretreatment, FIG. 8
Protocol: as §5, §6

With `CC(=O)CCC=C(C)CCC=C(C)CCC=C(C)CCC=C(C)C` [GGA, 6, 10, 14, 18-tetramethyl-5,9, 13, 17-nonadecatetraen-2-one] the “eNOS induction in the heart” value (eNOS) was “neither iNOS nor eNOS was induced”, the “amount of phosphorylated form of HSF1 in the nuclear fraction” value [1] was “increased” and the “iNOS induction in the heart” value (iNOS) was “neither iNOS nor eNOS was induced”. For the same compound, the “HSP70 expression in the heart (relative density to control group)” value (HSP70) was “increased”.

— patent publication US6846845B2, “Heat shock protein inducer” (Eisai Co., Ltd., priority 2002, dated 2005)
